target: Human B0AT1 (Homo sapiens (Human), UniProt Q695T7); assay: hB0AT1 inhibitory test (phenylalanine uptake); assay type: cell-based; settings: Human B0AT1 stable expression CHO cells; [3H]-L-phenylalanine uptake, phenylalanine 0.25 mM
Method in brief: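 CHO cells stably expressing human B0AT1, in sodium-containing HEPES buffer with 0.01% BSA, preincubated with compound (0.5% DMSO) 30 min or longer at ambient temperature. Uptake of [3H]-L-phenylalanine (0.25 mM final) read by scintillation, analysed at 100-200 min; non-specific uptake from […] N-(4-bromophenyl)-3,5-dichloro-2-hydroxybenzamide, IC50 by logistic nonlinear regression.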

Sequence of Human B0AT1 (Q695T7 whole entry): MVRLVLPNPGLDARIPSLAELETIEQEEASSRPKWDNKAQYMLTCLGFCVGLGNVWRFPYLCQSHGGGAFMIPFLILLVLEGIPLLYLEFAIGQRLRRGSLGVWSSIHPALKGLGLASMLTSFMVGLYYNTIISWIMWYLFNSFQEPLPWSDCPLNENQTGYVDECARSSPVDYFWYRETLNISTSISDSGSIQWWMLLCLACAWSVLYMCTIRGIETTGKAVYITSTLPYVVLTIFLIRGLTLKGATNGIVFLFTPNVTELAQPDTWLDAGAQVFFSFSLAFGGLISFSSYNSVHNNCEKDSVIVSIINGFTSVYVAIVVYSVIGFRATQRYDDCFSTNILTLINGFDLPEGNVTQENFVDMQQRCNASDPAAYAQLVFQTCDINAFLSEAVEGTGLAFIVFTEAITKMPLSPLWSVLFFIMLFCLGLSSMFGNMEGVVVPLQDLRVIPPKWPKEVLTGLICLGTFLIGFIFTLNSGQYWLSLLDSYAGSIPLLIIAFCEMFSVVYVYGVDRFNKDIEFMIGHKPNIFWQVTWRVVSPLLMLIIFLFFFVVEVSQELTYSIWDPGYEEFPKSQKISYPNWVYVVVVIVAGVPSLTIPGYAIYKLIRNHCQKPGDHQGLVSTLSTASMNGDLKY

SMILES | IC50 [nM]
CC(C)CNC(=O)C1CN(C(=O)CNC(=O)/C=C/c2ccc(C(F)(F)F)cc2)Cc2ccccc21 (stereo not drawn) [I-278, N-(2-methylpropyl)-2-[2-[[(E)-3-[4-(trifluoromethyl)phenyl]prop-2-enoyl]amino]acetyl]-3,4-dihydro-1H-isoquinoline-4-carboxamide] | 87
CNC(=O)c1nn2c(c1Br)CN(C(=O)CNC(=O)/C=C/c1ccc(C(F)(F)F)cc1)CC2 [I-279] | 71
O=C(/C=C/c1ccc(C(F)(F)F)cc1)NCC(=O)N1CCn2ncc(C(=O)N3CCC(F)(F)C3)c2C1 [I-280] | 49

Further lines, results first:

IC50 [nM] | SMILES
21 | NC(=O)c1ccc2c(c1)CCN(C(=O)CNC(=O)/C=C/c1ccc(C(F)(F)F)cc1)C2 [I-281]
26 | O=C(/C=C/c1ccc(C(F)(F)F)cc1)NCC(=O)N1CCn2nc(C(F)F)cc2C1 [I-282, (E)-N-[2-[2-(difluoromethyl)-6,7-dihydro-4H-pyrazolo [1,5-a]pyrazin-5-yl]-2-oxoethyl]-3-[4-(trifluoromethyl)phenyl]prop-2-enamide]
361 | O=C(/C=C/c1ccc(C(F)(F)F)cc1)NCC(=O)N1Cc2ccnn2C[C@@H]1C(=O)O [I-283, (6R)-5-[2-[[(E)-3-[4-(trifluoromethyl)phenyl]prop-2-enoyl]amino]acetyl]-6,7-dihydro-4H-pyrazolo[1,5-a]pyrazine-6-carboxylic acid]
